Assays:
Test in all cases: relative viability (nuclei count vs DMSO), 5 days (fraction); higher = more cells survive
COR-L23 = test system: COR-L23
Method in brief: (§1)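 Medians of duplicate plates are given as relative viability. That measure is the nuclei count in treated wells divided by the count in vehicle wells. Counts were taken on 4× images of lung cancer cell lines in 1536-well plates, 5 days after pin-tool dosing the day after seeding with one drug alone or a fixed anchor-drug dose plus five library-drug doses (not always all listed) in √10 steps.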

EPLC-272H = test system: EPLC-272H
Method in brief: as §1

HARA = test system: HARA
Method in brief: as §1

HCC-15 = test system: HCC-15
Method in brief: as §1

HCC-44 = test system: HCC-44
Method in brief: as §1

HOP-62 = test system: HOP-62
Method in brief: as §1

LC-2-ad = test system: LC-2-ad
Method in brief: as §1

LU99A = test system: LU99A
Method in brief: as §1

NCI-H1355 = test system: NCI-H1355
Method in brief: as §1

NCI-H1651 = test system: NCI-H1651
Method in brief: as §1

NCI-H1915 = test system: NCI-H1915
Method in brief: as §1

NCI-H1993 = test system: NCI-H1993
Method in brief: as §1

NCI-H2023 = test system: NCI-H2023
Method in brief: as §1

NCI-H2085 = test system: NCI-H2085
Method in brief: as §1

NCI-H2126 = test system: NCI-H2126
Method in brief: as §1

NCI-H2347 = test system: NCI-H2347
Method in brief: as §1

NCI-H838 = test system: NCI-H838
Method in brief: as §1

PC-14 = test system: PC-14
Method in brief: as §1

SW 1573 = test system: SW 1573
Method in brief: as §1

UMC-11 = test system: UMC-11
Method in brief: as §1

## COc1cc2nccc(Oc3ccc(NC(=O)Nc4cc(C)on4)c(Cl)c3)c2cc1OC [Tivozanib] + CC1(C)CCC(c2ccc(Cl)cc2)=C(CN2CCN(c3ccc(C(=O)NS(=O)(=O)c4ccc(N[C@H](CCN5CCOCC5)CSc5ccccc5)c(S(=O)(=O)C(F)(F)F)c4)cc3)CC2)C1 [Navitoclax] (partner 0.5 µM)
COR-L23; first compound 0.005 µM
  relative viability: 0.955
COR-L23; first compound 0.01581 µM
  relative viability: 0.998
COR-L23; first compound 0.05 µM
  relative viability: 1.04
COR-L23; first compound 0.1581 µM
  relative viability: 0.935
COR-L23; first compound 0.5 µM
  relative viability: 0.817
EPLC-272H; first compound 0.005 µM
  relative viability: 0.916
EPLC-272H; first compound 0.01581 µM
  relative viability: 1.25
EPLC-272H; first compound 0.05 µM
  relative viability: 1.34
EPLC-272H; first compound 0.1581 µM
  relative viability: 0.967
EPLC-272H; first compound 0.5 µM
  relative viability: 0.911
HARA; first compound 0.005 µM
  relative viability: 1.11
HARA; first compound 0.01581 µM
  relative viability: 1.04
HARA; first compound 0.05 µM
  relative viability: 1.19
HARA; first compound 0.1581 µM
  relative viability: 1.19
HARA; first compound 0.5 µM
  relative viability: 1.15
HCC-15; first compound 0.005 µM
  relative viability: 0.719
HCC-15; first compound 0.01581 µM
  relative viability: 0.676
HCC-15; first compound 0.05 µM
  relative viability: 0.67
HCC-15; first compound 0.1581 µM
  relative viability: 0.742
HCC-15; first compound 0.5 µM
  relative viability: 0.728
HCC-44; first compound 0.005 µM
  relative viability: 1.01
HCC-44; first compound 0.01581 µM
  relative viability: 0.986
HCC-44; first compound 0.05 µM
  relative viability: 1.01
HCC-44; first compound 0.1581 µM
  relative viability: 0.962
HCC-44; first compound 0.5 µM
  relative viability: 0.944
HOP-62; first compound 0.005 µM
  relative viability: 0.996
HOP-62; first compound 0.01581 µM
  relative viability: 1.08
HOP-62; first compound 0.05 µM
  relative viability: 1.07
HOP-62; first compound 0.1581 µM
  relative viability: 1.12
HOP-62; first compound 0.5 µM
  relative viability: 0.844
LC-2-ad; first compound 0.005 µM
  relative viability: 0.35
LC-2-ad; first compound 0.01581 µM
  relative viability: 0.48
LC-2-ad; first compound 0.05 µM
  relative viability: 0.535
LC-2-ad; first compound 0.1581 µM
  relative viability: 0.448
LC-2-ad; first compound 0.5 µM
  relative viability: 0.427
LU99A; first compound 0.005 µM
  relative viability: 0.795
LU99A; first compound 0.01581 µM
  relative viability: 0.749
LU99A; first compound 0.05 µM
  relative viability: 0.849
LU99A; first compound 0.5 µM
  relative viability: 0.794
NCI-H1355; first compound 0.005 µM
  relative viability: 0.844
NCI-H1355; first compound 0.01581 µM
  relative viability: 0.989
NCI-H1355; first compound 0.05 µM
  relative viability: 0.996
NCI-H1355; first compound 0.5 µM
  relative viability: 1
NCI-H1651; first compound 0.005 µM
  relative viability: 0.979
NCI-H1651; first compound 0.01581 µM
  relative viability: 0.934
NCI-H1651; first compound 0.05 µM
  relative viability: 1.09
NCI-H1651; first compound 0.1581 µM
  relative viability: 0.983
NCI-H1651; first compound 0.5 µM
  relative viability: 1.15
NCI-H1915; first compound 0.005 µM
  relative viability: 0.756
NCI-H1915; first compound 0.01581 µM
  relative viability: 0.765
NCI-H1915; first compound 0.05 µM
  relative viability: 0.806
NCI-H1915; first compound 0.1581 µM
  relative viability: 0.838
NCI-H1915; first compound 0.5 µM
  relative viability: 0.771
NCI-H1993; first compound 0.005 µM
  relative viability: 0.86
NCI-H1993; first compound 0.01581 µM
  relative viability: 0.857
NCI-H1993; first compound 0.05 µM
  relative viability: 0.967
NCI-H1993; first compound 0.1581 µM
  relative viability: 0.668
NCI-H1993; first compound 0.5 µM
  relative viability: 0.836
NCI-H2023; first compound 0.005 µM
  relative viability: 0.909
NCI-H2023; first compound 0.01581 µM
  relative viability: 1.02
NCI-H2023; first compound 0.05 µM
  relative viability: 1.04
NCI-H2023; first compound 0.1581 µM
  relative viability: 0.962
NCI-H2023; first compound 0.5 µM
  relative viability: 0.954
NCI-H2085; first compound 0.005 µM
  relative viability: 1.07
NCI-H2085; first compound 0.01581 µM
  relative viability: 1.1
NCI-H2085; first compound 0.05 µM
  relative viability: 1.17
NCI-H2085; first compound 0.1581 µM
  relative viability: 1.04
NCI-H2085; first compound 0.5 µM
  relative viability: 1.14
NCI-H2126; first compound 0.005 µM
  relative viability: 0.842
NCI-H2126; first compound 0.01581 µM
  relative viability: 0.818
NCI-H2126; first compound 0.05 µM
  relative viability: 0.963
NCI-H2126; first compound 0.1581 µM
  relative viability: 0.635
NCI-H2126; first compound 0.5 µM
  relative viability: 0.857
NCI-H2347; first compound 0.005 µM
  relative viability: 0.735
NCI-H2347; first compound 0.01581 µM
  relative viability: 0.765
NCI-H2347; first compound 0.05 µM
  relative viability: 0.847
NCI-H2347; first compound 0.1581 µM
  relative viability: 0.735
NCI-H2347; first compound 0.5 µM
  relative viability: 0.804
NCI-H838; first compound 0.005 µM
  relative viability: 1.09
NCI-H838; first compound 0.01581 µM
  relative viability: 1.16
NCI-H838; first compound 0.05 µM
  relative viability: 1.2
NCI-H838; first compound 0.5 µM
  relative viability: 1.12
PC-14; first compound 0.005 µM
  relative viability: 0.98
PC-14; first compound 0.01581 µM
  relative viability: 1.04
PC-14; first compound 0.05 µM
  relative viability: 1.11
PC-14; first compound 0.1581 µM
  relative viability: 1.07
PC-14; first compound 0.5 µM
  relative viability: 1
SW 1573; first compound 0.005 µM
  relative viability: 0.92
SW 1573; first compound 0.01581 µM
  relative viability: 0.911
SW 1573; first compound 0.05 µM
  relative viability: 0.949
SW 1573; first compound 0.1581 µM
  relative viability: 0.777
SW 1573; first compound 0.5 µM
  relative viability: 0.983
UMC-11; first compound 0.005 µM
  relative viability: 0.314
UMC-11; first compound 0.01581 µM
  relative viability: 0.322
UMC-11; first compound 0.05 µM
  relative viability: 0.306
UMC-11; first compound 0.5 µM
  relative viability: 0.329

Source: the supplement of paper PMC10307832
